Source: patent US12378194B2, “N, n-dimethyltryptamine salts and crystalline salt forms” (ATAI Therapeutics, Inc., priority 2021, dated 2025)

Tests used:
[1] = Dynamic vapor sorption (DVS) hygroscopicity; type: physicochemical; conditions: for Hygroscopicity [DVS], grade in words: DVS 5% to 95% RH; for DVS wt. loss 95% to 5% RH: desorption 95% to 5% RH; for DVS wt. gain 5% to 95% RH / DVS water uptake 5% to 95% RH: sorption 5% to 95% RH; for DVS water uptake 5% to 95% RH / DVS water uptake 5% to 75% RH / DVS water uptake 75% to 95% RH: mol water per mol; for DVS hysteresis: sorption vs desorption; for DVS wt. loss 75% to 5% RH: desorption 75% to 5% RH; for DVS wt. loss 95% to 75% RH: desorption 95% to 75% RH; for DVS wt. gain 5% to 75% RH / DVS water uptake 5% to 75% RH: sorption 5% to 75% RH; for DVS wt. gain 75% to 95% RH / DVS water uptake 75% to 95% RH: sorption 75% to 95% RH
[2] = Physical appearance and form stability at high relative humidity; type: physicochemical; conditions: for Hygroscopicity [physical appearance at high RH]: 90% RH, RT
[3] = Brito-da-Costa et al 2020; cited from earlier work
[4] = free base; cited from earlier work

CN(C)CCc1c[nH]c2ccccc12.O=C(O)/C=C/C(=O)O [DMT Fumarate Form A]
Hygroscopicity [DVS], grade in words [1]: limited | Hygroscopicity [DVS], grade in words ([1]; listed as Fumarate A): Limited hygroscopicity | DVS wt. loss 95% to 5% RH [1]: 0.679% wt. | DVS wt. loss 95% to 5% RH ([1]; listed as Fumarate A): 95% to 5%: 0.679% wt. loss some | DVS wt. gain 5% to 95% RH [1]: 0.573% wt. | DVS wt. gain 5% to 95% RH ([1]; listed as Fumarate A): 0.573 % wt. | DVS water uptake 5% to 95% RH [1]: (0.1 mol/mol | DVS water uptake 5% to 95% RH ([1]; listed as Fumarate A): 0.1 mol/mol | DVS hysteresis [1]: hysteresis | Hygroscopicity [physical appearance at high RH] ([2]; 7 days): white solid

CN(C)CCc1c[nH]c2ccccc12.O=C(O)C[C@H](O)C(=O)O [DMT Malate Form A]
Hygroscopicity [DVS], grade in words [1]: significant | Hygroscopicity [DVS], grade in words ([1]; listed as Malate A): Significant hygroscopicity | DVS wt. loss 75% to 5% RH [1]: 1.37% wt. loss | DVS wt. loss 75% to 5% RH ([1]; listed as Malate A): 75% to 5%: 1.37% wt loss % wt. | DVS wt. loss 95% to 75% RH [1]: 9.59% wt. loss | DVS wt. loss 95% to 75% RH ([1]; listed as Malate A): 95% to 75%: 9.59% wt. loss | DVS wt. gain 5% to 75% RH [1]: 1.21% wt. gain | DVS wt. gain 5% to 75% RH ([1]; listed as Malate A): 1.21 % wt. | DVS water uptake 5% to 75% RH [1]: (0.4 mol/mol | DVS water uptake 5% to 75% RH ([1]; listed as Malate A): 0.4 mol/mol | DVS wt. gain 75% to 95% RH [1]: 9.75% wt. gain | DVS wt. gain 75% to 95% RH ([1]; listed as Malate A): 9.75 % wt. | DVS water uptake 75% to 95% RH [1]: (1.7 mol/mol | DVS water uptake 75% to 95% RH ([1]; listed as Malate A): 1.7 mol/mol | Hygroscopicity [physical appearance at high RH] ([2]; 7 days): white solid

CN(C)CCc1c[nH]c2ccccc12.O=C(O)CCC(=O)O [DMT Succinate Form A]
Hygroscopicity [DVS], grade in words [1]: low | Hygroscopicity [DVS], grade in words ([1]; listed as DMT succinate Form A): least hygroscopic | Hygroscopicity [DVS], grade in words ([1]; listed as Succinate A): Low hygroscopicity | DVS wt. loss 95% to 5% RH [1]: 0.175% wt. | DVS wt. loss 95% to 5% RH ([1]; listed as Succinate A): 95% to 5%: 0.175% wt. loss some | DVS wt. gain 5% to 95% RH [1]: 0.171% wt. | DVS wt. gain 5% to 95% RH ([1]; listed as Succinate A): 0.171 % wt. | DVS water uptake 5% to 95% RH [1]: (0.03 mol/mol | DVS water uptake 5% to 95% RH ([1]; listed as Succinate A): 0.03 mol/mol | DVS hysteresis [1]: hysteresis | Hygroscopicity [physical appearance at high RH] ([2]; 7 days): white solid | Physical form after water absorption ([2]; after water absorption): preservation of the physical form

CN(C)CCc1c[nH]c2ccccc12.O=S(=O)(O)O [DMT Sulfate Form A]
Hygroscopicity [physical appearance at high RH] ([2]; 1 day): oil/deliquesced

CN(C)CCc1c[nH]c2ccccc12 [DMT free base, N,N-dimethyltryptamine]
Degradation rate in solution [3]: fast degradation rate | Solubility in water [4]: extremely low
